2 sequences from patent US9708372B2, “Agonistic autoantibodies to the alpha1-adrenergic receptor and the beta2-adrenergic receptor in Alzheimer's and vascular dementia” (E.R.D.E.-AAK-DIAGNOSTIK GMBH, priority 2011, dated 2017) can be followed below.

Where two headings read alike, the source gives them in different places.

Experiment [1] relates to spontaneously contracting neonatal cardiomyocytes. The experiment in a line: Cardiomyocyte contraction bioassay: chronotropic response to patient IgG after preincubation with receptor loop peptides. The conditions noted are these: IgG from three AD/vascular dementia patients preincubated 1 hour at 4° C. with 1 μg peptide per 1 μg IgG protein. In kind it is cell-based, rat. How it is done:
Cultures of neonatal cardiomyocytes were prepared from new-born, one to three days old rats essentially as described in [15]. Chinese hamster ovary cells stably transfected with the A-isoform of the human α1-AR (CHO-α1) were grown in F12 HAM medium supplemented with glutamine, 10% FCS and 1% penicillin streptomycin at 37° C. and 5% CO2.
Functional autoantibodies were detected utilizing the chronotropic responses of cultivated spontaneously contracting neonatal cardiomyocytes. For monitoring the contraction rate of neonatal cardiomyocytes a standardized bioassay based on computer-assisted recording of the contraction rate was employed.
Immunoglobulin (IgG) fractions from serum samples were prepared according to a standard procedure as described in [6]. Patients IgG were added to cultures of neonatal cardiomyocytes to a final dilution of 1:40. After incubation at 37° C. for 60 minutes, the pulsation rate was measured. A total of up to 30 cells or cell clusters for each sample of a given immunoglobulin fraction was analysed. The chronotropic response to the exposition to patient IgG compared to preceding control recordings is given as increases in the number of contractions per minute. Identification of the target GPCR type was performed using specific receptor antagonists, 10^-7 M prazosin to block the α1-AR and 10^-7 M ICI […] for the β2-AR.
For mapping of the target site of agonistic autoantibodies on the receptor, IgG fractions were preincubated for 1 hour at 4° C. with an excess of synthetic peptides corresponding to amino acid sequences of the extracellular loop1 (LGYWAFGRVFCN) or the extracellular loop2 (PAPEDETICQINEE) of the human α1-AR (1 μg peptide per 1 μg IgG protein).

In experiment [2] the target is patient IgG (agAAB to the α1-AR). The experiment in a line: ELISA competition of patient IgG binding to the immobilized peptide by free α1-AR loop1 peptide. Set-up: species or system human. The conditions noted are these: free peptide 0.3 nM up to 5 μM, patient IgG preincubated with free peptide 15 minutes, nonlinear regression, read-out: EC50 value, competition of IgG binding to the immobilized peptide by soluble α1-AR loop 1 peptide. How it is done: Shown are data from representative experiments run in triplicates. Values are corrected for unspecific binding. A: Dependence of antibody binding on patient IgG protein. The given amount of IgG protein refers to 100 μl reaction volume (□) binding in the presence of 0.15 M NaCl; (●) binding in the presence of 0.5 M NaCl. B: Time-dependence of antibody binding. C: Competition of binding by increasing concentrations of the free α1-AR loop1 peptide. Concentrations of the free peptide ranged from 0.3 nM to 5.0 μM. The patient IgG was preincubated with the free peptide in solution for 15 minutes.
The binding of agonistic IgG preparations was characterized using standard ELISA techniques. Briefly, biotinylated peptides corresponding to either the first or the second extracellular loop of the human α1A-AR were coupled to pre-blocked streptavidin-coated 96-well plates (Pierce). All experimental steps were performed at room temperature. If not indicated otherwise, 5 μg of IgG protein was used and the incubation time was 30 minutes. As secondary antibody anti-human horseradish conjugated anti-IgG was used. The antibody binding was visualized by the 1-Step Ultra TMB ELISA (Thermo Scientific). The optical density was quantified at 450 nm using a SLT Spectra multiplate reader (TECAN).

Experiment [3] addresses T1, A-isoform of the human α1-AR (CHO-α1) (Homo sapiens, UniProt P35348).
T1 construct: expressed in transfected cells; host or cells: CHO (Chinese hamster ovary) cells, stably transfected
T1 sequence (P35348 1-466): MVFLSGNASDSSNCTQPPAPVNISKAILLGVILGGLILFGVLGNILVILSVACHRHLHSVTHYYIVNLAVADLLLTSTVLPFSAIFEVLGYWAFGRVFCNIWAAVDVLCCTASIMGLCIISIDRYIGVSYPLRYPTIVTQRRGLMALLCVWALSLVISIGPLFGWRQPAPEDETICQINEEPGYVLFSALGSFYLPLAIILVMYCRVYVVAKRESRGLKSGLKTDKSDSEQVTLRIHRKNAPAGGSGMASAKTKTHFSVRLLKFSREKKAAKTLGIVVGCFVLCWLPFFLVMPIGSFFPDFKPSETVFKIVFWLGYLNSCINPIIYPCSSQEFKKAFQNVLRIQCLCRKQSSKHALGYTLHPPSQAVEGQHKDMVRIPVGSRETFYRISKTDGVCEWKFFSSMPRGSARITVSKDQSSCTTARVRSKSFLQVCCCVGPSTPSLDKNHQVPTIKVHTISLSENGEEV
The experiment in a line: Intracellular calcium (Cai) mobilization in CHO-α1 cells. It counts as cell-based. How it is done: The data represent mean values of independent measurements of three individual cell populations. A: Time dependence of Cai mobilization by patient IgG compared to the α1-AR agonist phenylephrine (PE). The addition of patient IgG preparation and PE is indicated by the arrow. The additions were (▴) 2.5 μg patient IgG; (▪) 5 μg patient IgG; (●) 5 μM PE. B: Effect of 5 μg human control IgG (Δ) and 5 μg patient IgG (♦) on Cai mobilization. The addition of IgG preparations is indicated by the arrow. C: Inhibitory effect of preincubation of patient IgG with the free α1-AR loop1 peptide. Patient IgG was preincubated with 0.25 μM peptide for 15 minutes before addition to the cells. Peak values (five of each individual measurement) were taken for assessing the decrement in Cai mobilization. […]
The potential of patients IgG fractions to mobilise intracellular calcium (Cai) was assessed using Chinese hamster ovary cells stably transfected with the A-isoform of the human α1-AR (CHO-α1). The cells were trypsinized and plated on black clear bottom 96-well plates suited for fluorescence measurements (Greiner) at a density of 30 000 cells per well. […] Cai was measured on a Perkin Elmer Victor X2 fluorescence multiplate reader equipped with an injector unit. The cells were excited at wave lengths alternating between 340 nm and 380 nm and the fluorescence signal emitted at 510 nm was recorded. […]

Consider “PAPEDETICQINEE (listed as Homo sapiens) [loop2 peptide, synthetic peptide corresponding to extracellular loop2 of the human α1-AR]”, for which the “Effect of peptide preincubation on chronotropic response to patient IgG” value in experiment [1] was “did not affect”.
For “LGYWAFGRVFCN [loop1 peptide, synthetic peptide corresponding to extracellular loop1 of the human α1-AR]”, the “Effect of peptide preincubation on chronotropic response to patient IgG” value is recorded as “nearly abolished” in experiment [1] and “abolished” in experiment [1] (listed as L1 peptide). Moreover, the results for the EC50 in experiment [2] (listed as extracellular loop1 peptide) and in experiment [2] (listed as α1-AR loop 1 peptide) were 30 nM and around 30 nM, respectively. The “Effect of the peptide itself on Cai” value in experiment [3] (CHO-α1 cells, peptide alone) is “no effect”. For the same sequence, the “Effect of peptide preincubation on elevation of Cai by patient IgG” value in experiment [3] (patient IgG preincubated with 0.25 μM peptide for 15 minutes, p<0.01) is “reduced significantly”.
